In patent publication US9301923B2, “Lipids, lipid compositions, and methods of using them” (NOVARTIS AG, priority 2009, dated 2016):

Assays:
Factor VII = Factor VII activity assay, in vivo liver delivery of FVII siRNA LNP; design: species or system mouse; details: dose 1 mg/kg siRNA i.v., ~48 h; lipid/no neutral lipid/CHOL/GM-020 NOF 60/0/36/4, N/P 3
Summary of the method: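 Female CD-1 mice (~25 g) given a single i.v. tail-vein dose of FVII siRNA in LNPs (cationic, stealth, neutral lipids), dosed as mg siRNA/kg. Plasma collected ~48 h post-injection; FVII activity read against a standard curve from pooled vehicle-control plasma.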

[1] = system: PLK-1 mRNA in HepG2 tumors; assay: HepG2 tumor study, PLK-1 mRNA KD in tumor tissue; assay type: in vivo, human; details: Mus musculus, HepG2, iv, 24 h, HepG2 tumor in nude mice, 3 × 3 mg/kg siRNA iv, tumors harvested 24 hrs after the last dose; read-out: PLK1 % inhibition
Text: (§1) Formulated siRNAs are made up of double stranded siRNA sequences specific to a target mRNA sequence, and are in the form of lipid nucleotid particles (LNPs) containing cationic lipids, stealth lipids and neutral lipids, as provided in the Examples below. The siRNA construct for use in targeting the liver is specific to Factor VII. The siRNA construct for use in targeting tumors is specific to PLK1-424, which is published by Judge et al., See, J Clin Invest. 2009 March; 119(3):661-73; doi: 10.1172/JCI37515). • 1. FVII siRNA duplex sequence
HepG2 tumors are established in female nude mice by sc injection of 5×10^6 cells in 100 ul PBS into the left flank. Mice are randomized into treatment groups 10-14 days after seeding as tumors reached an average size of 150 mm^3. siRNA formulated LNP formulations are administered at 3×3 mg/kg dose levels intravenously via the lateral tail vein calculated on a mg siRNAs/kg basis according to individual animal weights (10 ml/kg injection volume). Mice are euthanized by CO2 inhalation at various time points and the tumors are harvested 24 hrs after the last dose for mRNA quantitation. Lipids with a wide range of pKa (5.3-6.6) are used in the LNP formulations. Tumors are measured in 2 dimensions (width×length) to assess tumor growth using digital calipers. Tumor volume is calculated using the equation [a×b×b/2], where a=largest diameter and b=smallest diameter.
(§2) About 30-50 mg tumor tissue is homogenized in tissue lysis buffer in a Qiagen homogenizer followed by centrifugation to clarify lysates. Total RNA is isolated using RNeasy isolation kit (catalog number 74106) according to the manufacture's protocol. PLK-1 mRNA is analyzed by quantitative PCR and normalized to human GAPDH. Applied Biosystems human PLK-1 gene expression assay Hs00983229_m1 and human GAPDH endogenous control cat number 4326317E are used for mRNA detection.
(§3) The pKa in all tables refers to the pKa of the cationic lipid. Where multiple doses are indicated (e.g., 3×5), the first number indicates the number of doses given and the second number indicates the amount per dose in mg siRNA (biologically active agent) per kg mouse. In general the multiple doses are administered at 24 hour intervals, and tissues for mRNA quantitation are harvested 24 hours after the last dose.

[2] = pKa of the lipid by TNS fluorescence; assay type: physicochemical; details: pKa
Summary of the method: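 Lipid dissolved in ethanol (2 mM stock) and measured with TNS across eight buffers of differing pH, in water at standard temperature and pressure. Normalized fluorescence intensity plotted against pH and points joined by a smooth line to derive pKa, precise to about 0.2 units.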

[3] = system: PLK-1 mRNA in Hep3B tumors; assay: Hep3B tumor study, PLK-1 mRNA KD in tumor tissue; assay type: in vivo, human; details: for PLK1 inhibition %: Hep3B tumor, mouse, i.v., LNP composition as in the source; for % KD: Table 9 experiment
Text: as §1
Hep3B tumors are established in female nude mice by sc injection of 7×10^6 cells in 100 ul PBS into the left flank. Mice are randomized into treatment groups 10-14 days after seeding as tumors reached an average size of 100 mm^3. siRNA formulated LNP formulations are administered at various dose levels intravenously via the lateral tail vein calculated on a mg siRNAs/kg basis according to individual animal weights (10 ml/kg injection volume). Mice are euthanized by CO2 inhalation at various time points and the tumors are harvested for mRNA quantitation. Lipids with a wide range of pKa (5.3-6.6) are used in the LNP formulations. Tumors are measured in 2 dimensions (width×length) to assess tumor growth using digital calipers. Tumor volume is calculated using the equation [a×b×b/2], where a equals the largest diameter and b equals the smallest diameter.
as §2, §3

[4] = Particle size and PDI by dynamic light scattering (Malvern Zetasizer); assay type: physicochemical; design: Final size: unit not given here; details: for Final size: LNP formulation
Summary of the method: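 Nanoparticles diluted in PBS to a count rate of about 200-400 kcts and measured by dynamic light scattering; size given as intensity-weighted average diameter, with polydispersity index from the same measurement.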

[5] = system: PLK-1 mRNA in 786-0 tumors; assay: 786-0 renal tumor study, PLK-1 mRNA KD in tumor tissue; assay type: in vivo, human; details: tumors collected 48 hrs after the single dose, read-out: PLKI % Inhibition
Text: as §1
786-0 tumors are established as described before by sc injection of 10×10^6 cells in 200 ul PBS. 4 weeks post implantation, the mice with the tumor size ranging from 200-250 mm^3 are randomized into treatment groups. siRNA formulated LNPs are then intravenously administered at either 5 or 10 mg/kg dose levels. 48 hrs after the single dose, tumors are collected for mRNA quantitation.
About 30-50 mg tumor tissue is homogenized in tissue lysis buffer in a Qiagen homogenizer followed by centrifugation to clarify lysates. […] PLK-1 mRNA is analyzed by quantitative PCR and normalized to human GAPDH. […]
The pKa in all tables refers to the pKa of the cationic lipid. […] In general the multiple doses are administered at 24 hour intervals, and tissues for mRNA quantitation are harvested 24 hours after the last dose.

[6] = LNP formulation with PLK1 siRNA, helper, neutral and stealth lipid, molar ratio and N/P as in the table, stealth lipid S004, molar ratio 45/43/10/2, N/P 4
[7] = LNP formulation with PLK1 siRNA, helper, neutral and stealth lipid, molar ratio and N/P as in the table, stealth lipid S004, molar ratio 50/48/2, N/P 4
[8] = lipid/no neutral lipid/CHOL/GM-020 NOF 60/0/36/4, N/P 3
[9] = LNP formulation with PLK1 siRNA, helper, neutral and stealth lipid, molar ratio and N/P as in the table, stealth lipid S004, molar ratio 50/43/5/2, N/P 4
[10] = LNP formulation with PLK1 siRNA, helper, neutral and stealth lipid, molar ratio and N/P as in the table

Structure (SMILES)	inhibition at 3 mg/kg [1]	pKa [2]	PLK1 inhibition % ([3]; 1 × 0.1 mg siRNA/kg)	Final size ([4]; Table 10)	PLK1 inhibition % ([3]; 1 × 1 mg siRNA/kg)	Final size (nm) [4, 10]	other results
CCCCC/C=C\C/C=C\CCCCCCCCOCC(CN1CCCCC1)OCCO[C@H]1CC[C@@]2(C)C(=CC[C@H]3[C@@H]4CC[C@H]([C@H](C)CCCC(C)C)[C@@]4(C)CC[C@@H]32)C1 (some centres unmarked) [E0076]	35%	5.85	0%	86.03			FVII inhib % (Factor VII): 29.3%; PLK1 inhibition % ([3]; 1 × 5 mg siRNA/kg): 85%; Final size (nm) [4, 6]: 80.98 nm; Final size (nm) [4, 7]: 86.03 nm; Final size (nm) ([4]; LNP formulation with PLK1 siRNA, helper, neutral and stealth lipid, molar ratio and N/P as in the table, stealth lipid S011, molar ratio 60/38/2, N/P 4): 89.89 nm; Final size (nm) [4, 8]: 89.47 nm; PDI [4, 8]: 0.143
CCCCCCCC/C=C\CCCCCCCCOCC(CN1CCOCC1)OCCOCCO[C@H]1CC[C@@]2(C)C(=CC[C@H]3[C@@H]4CC[C@H]([C@H](C)CCCC(C)C)[C@@]4(C)CC[C@@H]32)C1 (some centres unmarked) [E0085]	40%	5.32	53%	76.8			PLK1 inhibition % ([3]; 1 × 2 mg siRNA/kg): 62%; PLK1 inhibition % ([3]; 1 × 5 mg siRNA/kg): 69%; PLK1 inhibition % ([3]; 1 × 10 mg siRNA/kg): 55%; Final size (nm) [4, 6]: 76.8 nm; Final size (nm) ([4]; LNP formulation with PLK1 siRNA, helper, neutral and stealth lipid, molar ratio and N/P as in the table, stealth lipid S004, molar ratio 50/38/10/2, N/P 4): 88.33 nm; Final size (nm) [4, 9]: 87.74 nm; Final size (nm) ([4]; LNP formulation with PLK1 siRNA, helper, neutral and stealth lipid, molar ratio and N/P as in the table, stealth lipid S004, molar ratio 50/48/0/2, N/P 4): 96.42 nm; Final size (nm) ([4]; LNP formulation with PLK1 siRNA, helper, neutral and stealth lipid, molar ratio and N/P as in the table, stealth lipid S004, molar ratio 60/38/2, N/P 4): 90.06 nm; Final size (nm) ([4]; LNP formulation with PLK1 siRNA, helper, neutral and stealth lipid, molar ratio and N/P as in the table, stealth lipid S011, molar ratio 40/48/10/2, N/P 4): 81.83 nm
CCCCC/C=C\C/C=C\CCCCCCCCCCOCC(CN1CCCCC1)OCCCOCCCO[C@H]1CC[C@@]2(C)C(=CC[C@H]3[C@@H]4CC[C@H]([C@H](C)CCCC(C)C)[C@@]4(C)CC[C@@H]32)C1 (some centres unmarked) [E0096]	17%	5.77		94.91			FVII inhib % (Factor VII): 14.4%; Final size (nm) [4, 8]: 128.8 nm; PDI [4, 8]: 0.162
CCCCC/C=C\C/C=C\CCCCCCCCOCC(CN1CCCCC1)OCCOC(=O)CCC(=O)O[C@H]1CC[C@@]2(C)C(=CC[C@H]3[C@@H]4CC[C@H]([C@H](C)CCCC(C)C)[C@@]4(C)CC[C@@H]32)C1 (some centres unmarked) [E0104]	32%	6.1					PLK1 inhibition % ([3]; 1 × 1 mg siRNA/kg, stealth lipid S004, molar ratio 50/48/2, N/P 3): 48%; PLK1 inhibition % ([3]; 1 × 1 mg siRNA/kg, stealth lipid S004, molar ratio 50/48/2, N/P 4): 50%; Final size ([4]; Table 11, lipid molar ratio 45/43/10/2): 87.59; Final size ([4]; Table 11, lipid molar ratio 50/48/2): 95.05; inhibition at 5 mg/kg ([5]; 1 × 5 mg/kg iv): 55%; inhibition at 10 mg/kg ([5]; 1 × 10 mg/kg iv): 50%
CCCCCCCC/C=C\CCCCCCCCOCC(CN1CCCC(C)C1)OCCOCCO[C@H]1CC[C@@]2(C)C(=CC[C@H]3[C@@H]4CC[C@H]([C@H](C)CCCC(C)C)[C@@]4(C)CC[C@@H]32)C1 (some centres unmarked) [E0119]	22%	5.82		99.37	40%	99.37 nm	
CCCCC/C=C\C/C=C\CCCCCCCCOC[C@@H](CN1CCC[C@@H]1C)OCCCOC(=O)CCC(=O)O[C@H]1CC[C@@]2(C)C(=CCC3C2CC[C@@]2(C)C3CC[C@@H]2[C@H](C)CCCC(C)C)C1 (some centres unmarked) [E0161]	0%	6.3		101.4	45%	101.4 nm	
CCCCC/C=C\C/C=C\CCCCCCCCOCC(CN1CCOCC1)OCCOCCNC(=O)O[C@H]1CC[C@@]2(C)C(=CC[C@H]3[C@@H]4CC[C@H]([C@H](C)CCCC(C)C)[C@@]4(C)CC[C@@H]32)C1 (some centres unmarked) [E0176]	37%	5.56		99.14	36%	99.14 nm	
CCCCCCCC/C=C\CCCCCCCCOCC(CN1CCCCC1)OCCCOC(=O)CCC(=O)O[C@H]1CC[C@@]2(C)C(=CC[C@H]3[C@@H]4CC[C@H]([C@H](C)CCCC(C)C)[C@@]4(C)CC[C@@H]32)C1 (some centres unmarked) [E0178]	0%	5.92	0%	94.67			% KD ([3]; 0.1 mg/kg): 0%; % KD ([3]; 1.0 mg/kg): 35%; Final size (nm) [4, 9]: 94.67 nm; Final size (nm) [4, 7]: 88.39 nm
CCCCCCCC/C=C\CCCCCCCCOCC(CCN1CCOCC1)OCCOCCO[C@H]1CC[C@@]2(C)C(=CCC3C2CC[C@@]2(C)C3CC[C@@H]2[C@H](C)CCCC(C)C)C1 (some centres unmarked) [E0180]	0%			77.35	16%	77.35 nm	
